ChEMBL document CHEMBL2073861, “Molecular identification of a novel carnitine transporter specific to human testis. Insights into the mechanism of carnitine recognition” (J Biol Chem, 2002)

Legend:
[1] = target: T1, Organic cation/carnitine transporter 2 (Homo sapiens, UniProt O76082); experiment: TP_TRANSPORTER: inhibition of carnitine transport by Carnitine-related compound-7A at 20uM in Xenopus laevis oocytes; type: functional, cell-based, Oocyte; set-up: scale not given: the % may be the effect or the level left; details: probe carnitine, read-out: Activity
T1 sequence (O76082 whole entry): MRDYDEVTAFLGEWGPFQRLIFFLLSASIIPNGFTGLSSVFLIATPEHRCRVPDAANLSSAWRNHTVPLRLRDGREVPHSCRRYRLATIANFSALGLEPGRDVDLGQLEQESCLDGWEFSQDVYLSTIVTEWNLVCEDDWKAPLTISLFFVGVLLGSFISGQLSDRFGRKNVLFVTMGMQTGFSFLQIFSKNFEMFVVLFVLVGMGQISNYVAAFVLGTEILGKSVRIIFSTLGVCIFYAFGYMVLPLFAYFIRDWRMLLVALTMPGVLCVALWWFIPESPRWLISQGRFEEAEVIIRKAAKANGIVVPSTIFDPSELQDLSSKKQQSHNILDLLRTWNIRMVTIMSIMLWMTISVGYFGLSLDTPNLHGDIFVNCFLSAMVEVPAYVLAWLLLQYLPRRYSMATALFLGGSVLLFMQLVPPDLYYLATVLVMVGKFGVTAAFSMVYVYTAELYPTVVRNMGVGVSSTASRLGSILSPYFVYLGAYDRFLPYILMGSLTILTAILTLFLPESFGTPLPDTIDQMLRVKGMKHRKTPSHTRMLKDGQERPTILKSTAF

[2] = target: Solute carrier family 22 member 16 (Homo sapiens) (UniProt Q86VW1); experiment: TP_TRANSPORTER: inhibition of carnitine uptake by Carnitine-related compound-7A at 20uM in Xenopus laevis oocytes; set-up: scale not given: the % may be the effect or the level left; details: Oocyte
[3] = target: T2, Solute carrier family 22 member 16 (Homo sapiens, UniProt Q86VW1); experiment: TP_TRANSPORTER: inhibition of carnitine in Xenopus laevis oocytes; type: functional, cell-based, Oocyte
T2 sequence (Q86VW1 whole entry): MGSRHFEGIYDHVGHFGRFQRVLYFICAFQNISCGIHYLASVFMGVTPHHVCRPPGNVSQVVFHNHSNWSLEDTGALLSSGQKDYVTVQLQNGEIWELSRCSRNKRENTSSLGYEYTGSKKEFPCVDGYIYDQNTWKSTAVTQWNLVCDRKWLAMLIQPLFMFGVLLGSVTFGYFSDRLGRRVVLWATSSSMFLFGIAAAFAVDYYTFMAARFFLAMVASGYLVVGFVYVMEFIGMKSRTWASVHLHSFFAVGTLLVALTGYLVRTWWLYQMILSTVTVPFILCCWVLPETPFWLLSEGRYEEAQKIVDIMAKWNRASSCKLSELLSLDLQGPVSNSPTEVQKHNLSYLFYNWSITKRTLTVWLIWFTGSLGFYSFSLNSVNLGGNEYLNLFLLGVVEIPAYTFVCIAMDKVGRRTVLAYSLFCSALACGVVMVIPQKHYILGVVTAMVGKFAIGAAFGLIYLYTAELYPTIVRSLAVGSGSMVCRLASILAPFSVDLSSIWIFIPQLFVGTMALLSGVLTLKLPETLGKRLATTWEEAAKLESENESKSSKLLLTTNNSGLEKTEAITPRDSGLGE

[4] = target: Solute carrier family 22 member 16 (Homo sapiens) (UniProt Q86VW1); experiment: TP_TRANSPORTER: inhibition of carnitine uptake by Carnitine-related compound-17 at 20uM in Xenopus laevis oocytes; set-up: scale not given: the % may be the effect or the level left; details: Oocyte
[5] = target: Solute carrier family 22 member 16 (Homo sapiens) (UniProt Q86VW1); experiment: TP_TRANSPORTER: inhibition of carnitine uptake by Carnitine-related compound-11A at 20uM in Xenopus laevis oocytes; set-up: scale not given: the % may be the effect or the level left; details: Oocyte
[6] = target: Solute carrier family 22 member 16 (Homo sapiens) (UniProt Q86VW1); experiment: TP_TRANSPORTER: inhibition of carnitine uptake by Carnitine-related compound-18 at 20uM in Xenopus laevis oocytes; set-up: scale not given: the % may be the effect or the level left; details: Oocyte
[7] = target: T1, Organic cation/carnitine transporter 2; experiment: TP_TRANSPORTER: inhibition of carnitine transport by Carnitine-related compound-9A at 20uM in Xenopus laevis oocytes; type: functional, cell-based, Oocyte; set-up: scale not given: the % may be the effect or the level left; details: probe carnitine, read-out: Activity
[8] = target: Solute carrier family 22 member 16 (Homo sapiens) (UniProt Q86VW1); experiment: TP_TRANSPORTER: inhibition of carnitine uptake by Carnitine-related compound-9A at 20uM in Xenopus laevis oocytes; set-up: scale not given: the % may be the effect or the level left; details: Oocyte
[9] = target: T1, Organic cation/carnitine transporter 2; experiment: TP_TRANSPORTER: inhibition of carnitine uptake by Carnitine-related compound-13 at 20uM in Xenopus laevis oocytes; type: functional, cell-based, Oocyte; set-up: scale not given: the % may be the effect or the level left; details: probe carnitine, read-out: Activity
[10] = target: Solute carrier family 22 member 16 (Homo sapiens) (UniProt Q86VW1); experiment: TP_TRANSPORTER: inhibition of carnitine uptake by Carnitine-related compound-13 at 20uM in Xenopus laevis oocytes; set-up: scale not given: the % may be the effect or the level left; details: Oocyte
[11] = target: Solute carrier family 22 member 16 (Homo sapiens) (UniProt Q86VW1); experiment: TP_TRANSPORTER: inhibition of carnitine uptake by Carnitine-related compound-12A at 20uM in Xenopus laevis oocytes; set-up: scale not given: the % may be the effect or the level left; details: Oocyte
[12] = target: T1, Organic cation/carnitine transporter 2; experiment: TP_TRANSPORTER: inhibition of carnitine transport by Carnitine-related compound-3A at 20uM in Xenopus laevis oocytes; type: functional, cell-based, Oocyte; set-up: scale not given: the % may be the effect or the level left; details: probe carnitine, read-out: Activity
[13] = target: Solute carrier family 22 member 16 (Homo sapiens) (UniProt Q86VW1); experiment: TP_TRANSPORTER: inhibition of carnitine uptake by Carnitine-related compound-3A at 20uM in Xenopus laevis oocytes; set-up: scale not given: the % may be the effect or the level left; details: Oocyte
[14] = target: T1, Organic cation/carnitine transporter 2; experiment: TP_TRANSPORTER: inhibition of carnitine uptake by Carnitine-related compound-5A at 20uM in Xenopus laevis oocytes; type: functional, cell-based, Oocyte; set-up: scale not given: the % may be the effect or the level left; details: probe carnitine, read-out: Activity
[15] = target: Solute carrier family 22 member 16 (Homo sapiens) (UniProt Q86VW1); experiment: TP_TRANSPORTER: inhibition of carnitine uptake by Carnitine-related compound-5A at 20uM in Xenopus laevis oocytes; set-up: scale not given: the % may be the effect or the level left; details: Oocyte
[16] = target: T1, Organic cation/carnitine transporter 2; experiment: TP_TRANSPORTER: inhibition of carnitine uptake by Carnitine-related compound-14 at 20uM in Xenopus laevis oocytes; type: functional, cell-based, Oocyte; set-up: scale not given: the % may be the effect or the level left; details: probe carnitine, read-out: Activity
[17] = target: Solute carrier family 22 member 16 (Homo sapiens) (UniProt Q86VW1); experiment: TP_TRANSPORTER: inhibition of carnitine uptake by Carnitine-related compound-6A at 20uM in Xenopus laevis oocytes; set-up: scale not given: the % may be the effect or the level left; details: Oocyte
[18] = target: T1, Organic cation/carnitine transporter 2; experiment: TP_TRANSPORTER: inhibition of carnitine transport by Carnitine-related compound-8A at 20uM in Xenopus laevis oocytes; type: functional, cell-based, Oocyte; set-up: scale not given: the % may be the effect or the level left; details: probe carnitine, read-out: Activity
[19] = target: Solute carrier family 22 member 16 (Homo sapiens) (UniProt Q86VW1); experiment: TP_TRANSPORTER: inhibition of carnitine uptake by Carnitine-related compound-8A at 20uM in Xenopus laevis oocytes; set-up: scale not given: the % may be the effect or the level left; details: Oocyte
[20] = target: T2, Solute carrier family 22 member 16; experiment: TP_TRANSPORTER: inhibition of carnitine transport by Octanoyl-carnitine at 5uM in Xenopus laevis oocytes; type: functional, cell-based; set-up: scale not given: the % may be the effect or the level left; details: oocyte
[21] = target: T1, Organic cation/carnitine transporter 2; experiment: TP_TRANSPORTER: inhibition of carnitine uptake by Carnitine-related compound-4A at 20uM in Xenopus laevis oocytes; type: functional, cell-based; set-up: scale not given: the % may be the effect or the level left; details: oocyte
[22] = target: Solute carrier family 22 member 16 (Homo sapiens) (UniProt Q86VW1); experiment: TP_TRANSPORTER: inhibition of carnitine uptake by Carnitine-related compound-4A at 20uM in Xenopus laevis oocytes; set-up: scale not given: the % may be the effect or the level left; details: Oocyte
[23] = target: T1, Organic cation/carnitine transporter 2; experiment: TP_TRANSPORTER: inhibition of carnitine uptake by Carnitine-related compound-10A at 20uM in Xenopus laevis oocytes; type: functional, cell-based, Oocyte; set-up: scale not given: the % may be the effect or the level left; details: probe carnitine, read-out: Activity
[24] = target: Solute carrier family 22 member 16 (Homo sapiens) (UniProt Q86VW1); experiment: TP_TRANSPORTER: inhibition of carnitine uptake by Carnitine-related compound-10A at 20uM in Xenopus laevis oocytes; set-up: scale not given: the % may be the effect or the level left; details: Oocyte
[25] = target: T1, Organic cation/carnitine transporter 2; experiment: TP_TRANSPORTER: inhibition of carnitine uptake by Carnitine-related compound-2A at 20uM in Xenopus laevis oocytes; type: functional, cell-based, Oocyte; set-up: scale not given: the % may be the effect or the level left; details: probe carnitine, read-out: Activity
[26] = target: Solute carrier family 22 member 16 (Homo sapiens) (UniProt Q86VW1); experiment: TP_TRANSPORTER: inhibition of carnitine uptake by Carnitine-related compound-2A at 20uM in Xenopus laevis oocytes; set-up: scale not given: the % may be the effect or the level left; details: Oocyte
[27] = target: T2, Solute carrier family 22 member 16; experiment: TP_TRANSPORTER: inhibition of carnitine transport by Acetyl-L-carnitine at 5uM in Xenopus laevis oocytes; type: functional, cell-based, Oocyte; set-up: scale not given: the % may be the effect or the level left; details: probe carnitine, read-out: Activity
[28] = substrate: C[N+](C)(C)CC(O)CC(=O)[O-]; experiment: TP_TRANSPORTER: uptake in Xenopus laevis oocytes; type: functional, cell-based, Oocyte

C[N+](C)(C)CCCCCC(=O)O
activity at 20 µM [1]: 35%
Activity [2]: 20%

C[N+](C)(C)C[C@@H](O)CC(=O)[O-] [D-CARNITINE]
Ki [3]: 30 µM

CC[N+](C)(CC)CC(O)CCC(=O)[O-] (stereo not drawn)
Activity [4]: 20%

CC[N+](C)(CC)CCCCCCC(=O)O
Activity [5]: 50%

CC[N+](CC)(CC)CC(O)CCC(=O)[O-] (stereo not drawn)
Activity [6]: 20%

CC[N+](CC)(CC)CCCCCC(=O)O
activity at 20 µM [7]: 30%
Activity [8]: 20%

C[N+](C)(C)CC(O)CC(=O)[O-] (stereo not drawn) [CARNITINE]
activity at 20 µM [9]: 40%
Activity [10]: 20%

CC[N+](CC)(CC)CCCCCCC(=O)O
Activity [11]: 50%

CC[N+](C)(CC)CCCCC(=O)O
activity at 20 µM [12]: 20%
Activity [13]: 20%

CC[N+](CCCCC(=O)O)(C(C)C)C(C)C
activity at 20 µM [14]: 40%
Activity [15]: 20%

CC[N+](CC)(CC)CC(O)CC(=O)[O-] (stereo not drawn)
activity at 20 µM [16]: 70%

CCC[N+](CCC)(CCC)CCCCC(=O)O
Activity [17]: 70%

CC[N+](C)(CC)CCCCCC(=O)O
activity at 20 µM [18]: 20%
Activity [19]: 30%

CCCCCCCC(=O)OC(CC(=O)O)C[N+](C)(C)C.[Cl-] (stereo not drawn) [Octanoyl-carnitine]
Activity [20]: 70%

CC[N+](CC)(CC)CCCCC(=O)O.[Cl-]
Activity [21]: 50%
Activity [22]: 20%

C[N+](C)(C)CCCCCCC(=O)O
activity at 20 µM [23]: 50%
Activity [24]: 40%

C[N+](C)(C)CCCCC(=O)O
activity at 20 µM [25]: 40%
Activity [26]: 20%

CC(=O)O[C@H](CC(=O)[O-])C[N+](C)(C)C [ACETYLCARNITINE]
activity at 5 µM [27]: 70%

B1: Solute carrier family 22 member 16 (Homo sapiens) (protein)
chain: MGSRHFEGIYDHVGHFGRFQRVLYFICAFQNISCGIHYLASVFMGVTPHHVCRPPGNVSQVVFHNHSNWSLEDTGALLSSGQKDYVTVQLQNGEIWELSRCSRNKRENTSSLGYEYTGSKKEFPCVDGYIYDQNTWKSTAVTQWNLVCDRKWLAMLIQPLFMFGVLLGSVTFGYFSDRLGRRVVLWATSSSMFLFGIAAAFAVDYYTFMAARFFLAMVASGYLVVGFVYVMEFIGMKSRTWASVHLHSFFAVGTLLVALTGYLVRTWWLYQMILSTVTVPFILCCWVLPETPFWLLSEGRYEEAQKIVDIMAKWNRASSCKLSELLSLDLQGPVSNSPTEVQKHNLSYLFYNWSITKRTLTVWLIWFTGSLGFYSFSLNSVNLGGNEYLNLFLLGVVEIPAYTFVCIAMDKVGRRTVLAYSLFCSALACGVVMVIPQKHYILGVVTAMVGKFAIGAAFGLIYLYTAELYPTIVRSLAVGSGSMVCRLASILAPFSVDLSSIWIFIPQLFVGTMALLSGVLTLKLPETLGKRLATTWEEAAKLESENESKSSKLLLTTNNSGLEKTEAITPRDSGLGE
Km [28]: 20 µM
